# Assay results reported in article PMC5714280 (Bioorganic & medicinal chemistry letters, 2017).
# What was measured:
# [1] = Plasma stability, human; format: in vitro ADME
# [2] = test system: MDA-MB-468 cells; assay: Cell viability assay; format: cell-based; details: Cell Titer Glo
# [3] = Plasma stability, mouse; format: in vitro ADME
# [4] = molecular target: Sigma1 (Homo sapiens, UniProt Q99720); assay: In vitro radio-ligand binding assay using membranes from MDA-MB-468 cancer cells; details: for fold decrease in binding affinity compared to IPAG: relative to IPAG
# [5] = molecular target: T1, androgen receptor (AR) (Homo sapiens, UniProt P10275); assay: Androgen reporter assay; format: cell-based
# T1 sequence (P10275 1-920): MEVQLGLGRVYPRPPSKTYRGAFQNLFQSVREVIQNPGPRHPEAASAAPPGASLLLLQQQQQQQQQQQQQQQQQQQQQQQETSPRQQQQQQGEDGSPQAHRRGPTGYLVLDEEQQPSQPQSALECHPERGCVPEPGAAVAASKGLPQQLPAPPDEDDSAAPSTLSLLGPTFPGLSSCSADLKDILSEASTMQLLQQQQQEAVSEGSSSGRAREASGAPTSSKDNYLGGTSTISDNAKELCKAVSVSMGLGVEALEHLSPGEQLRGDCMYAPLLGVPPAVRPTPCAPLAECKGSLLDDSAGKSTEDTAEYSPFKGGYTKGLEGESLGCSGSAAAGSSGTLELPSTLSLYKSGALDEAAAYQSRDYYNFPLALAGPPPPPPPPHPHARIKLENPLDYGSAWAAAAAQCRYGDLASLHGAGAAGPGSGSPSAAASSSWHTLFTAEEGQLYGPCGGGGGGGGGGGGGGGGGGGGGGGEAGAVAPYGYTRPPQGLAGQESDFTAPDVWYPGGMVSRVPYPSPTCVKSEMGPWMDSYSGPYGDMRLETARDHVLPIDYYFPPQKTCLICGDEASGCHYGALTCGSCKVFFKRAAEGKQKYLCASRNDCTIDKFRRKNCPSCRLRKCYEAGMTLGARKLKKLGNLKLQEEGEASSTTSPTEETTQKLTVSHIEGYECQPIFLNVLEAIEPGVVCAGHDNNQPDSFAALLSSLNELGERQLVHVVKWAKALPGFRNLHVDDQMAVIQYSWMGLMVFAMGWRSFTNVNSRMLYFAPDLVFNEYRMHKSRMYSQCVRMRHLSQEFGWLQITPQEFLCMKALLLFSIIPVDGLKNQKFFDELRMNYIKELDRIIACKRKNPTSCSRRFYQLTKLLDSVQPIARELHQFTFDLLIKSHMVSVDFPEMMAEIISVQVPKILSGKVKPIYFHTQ
# [6] = Mouse pharmacokinetics, IV and oral, plasma levels; format: in vivo, Male Swiss Mice; details: for V / AUC / clearance: 2 mg/kg IV; for AUC / clearance: male, Swiss, mouse, plasma, iv, 2 mg/kg; for AUC: AUC0−¥; for clearance: CL
# [7] = Mouse pharmacokinetic exposure, IP, plasma and brain; details: male, Swiss, brain, 10 mg/kg
# [8] = Stability in solution and photo-stability; format: physicochemical; details: for photo-stability: exposed to normal fluorescent light, aryl iodide
# Chain of Sigma1 (Q99720 whole entry): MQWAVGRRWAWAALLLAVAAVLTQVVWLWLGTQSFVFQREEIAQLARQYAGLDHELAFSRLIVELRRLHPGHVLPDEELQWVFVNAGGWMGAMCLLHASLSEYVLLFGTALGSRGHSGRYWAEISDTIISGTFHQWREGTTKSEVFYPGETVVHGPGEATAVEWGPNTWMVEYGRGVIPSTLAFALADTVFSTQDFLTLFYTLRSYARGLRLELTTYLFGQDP
Plasma Stability Human [1],Plasma Stability Mouse [3],fold decrease in binding affinity compared to IPAG [4],photo-stability [8],SMILES,acute cytotoxicity [2],"antiproliferative activity, potency [2]",also measured
>6 h,>6 h,5–10 fold,–,COc1ccc(NC(=N)NCCCOc2ccc(F)cc2)cc1 [compound 5],not acutely cytotoxic,3000 to 20000 nM,–
–,–,–,–,C[C@]12CC[C@H](O)CC1=CC[C@@H]1[C@@H]2CC[C@]2(C)C(c3cccnc3)=CC[C@@H]12 [abiraterone],–,–,EC50 [5]: 17100 nM
>6 h,>6 h,–,–,"N=C(NCCCOc1ccc(F)cc1)Nc1ccc(Cl)cc1 [compound 4, 1-(4-chlorophenyl)-3-(3-(4-fluorophenoxy)propyl)guanidine]",not acutely cytotoxic,3000 to 20000 nM,"V ([6]; Data set 1): 91.0 L/kg; V ([6]; Data set 2): 57.6 L/kg; AUC ([6]; Data set 1): 57 ng·h/mL; AUC ([6]; Data set 2): 71 ng·h/mL; clearance ([6]; Data set 1): 586 mL/min/kg; clearance ([6]; Data set 2): 469 mL/min/kg; dose escalation of exposure, oral 10 mg/kg to 30 mg/kg ([6]; oral route, 10 mg/kg to 30 mg/kg): < 3 fold; Cmax [7]: 691 ng/g"
>6 h,>6 h,5–10 fold,photo-stability issue similar to IPAG,N=C(NCCCOc1ccc(F)cc1)Nc1ccc(I)cc1 [compound 1],not acutely cytotoxic,3000 to 20000 nM,–
–,–,5–10 fold,–,N=C(NCCCOc1ccc(F)cc1)Nc1ccc(C(F)(F)F)cc1 [compound 6],–,–,–
–,–,–,photo-stability issue similar to IPAG,N=C(Nc1ccc(I)cc1)Nc1ccc(I)cc1 [compound 2],–,–,Sigma1 binding affinity (in words) [4]: binding affinity similar to IPAG
–,–,–,–,N=C(NCCCOc1ccc(F)cc1)NCCCOc1ccc(F)cc1 [compound 3],–,–,Sigma1 binding affinity (in words) [4]: no affinity

SMILES,Plasma Stability Human [1],Plasma Stability Mouse [3],fold decrease in binding affinity compared to IPAG [4],photo-stability [8],acute cytotoxicity [2],"antiproliferative activity, potency [2]",also measured
"NC(=NC12CC3CC(CC(C3)C1)C2)Nc1ccc(I)cc1 [IPAG, (1-adamantan-1-yl)-3-(4-iodophenyl)guanidine, reference compound]",–,–,–,particularly unstable when exposed to normal fluorescent light,–,3000 to 20000 nM,stability in solution ([8]; in solution): unstable when in solution
